In article PMC3388080 (PLoS ONE, 2012):

How the values were obtained:
Assay in all cases: CEREP radioligand binding
[1] = biological target: T1, MC4 (h) (Homo sapiens, UniProt P32245); details: % of control specific binding
T1 construct: purchased CEREP
Procedure: (§1) SB-334867 was evaluated in a selectivity screen performed at CEREP (Paris, France). The screen consisted of binding assays on a panel of 79 target receptors. The specific binding (SB) of a radioligand to each target receptor was defined as the difference between the total binding and the nonspecific binding determined in the presence of a cold competitor in excess. […] Details on the CEREP screen are available from www.cerep.fr.

[2] = system: Cl- channel; details: % of control specific binding
Procedure: as §1

[3] = system: PDGF; details: % of control specific binding
Procedure: as §1

[4] = biological target: T2, ETB (h) (Homo sapiens, UniProt P24530); details: % of control specific binding
T2 construct: purchased CEREP
Procedure: as §1

[5] = biological target: T3, mu (h) (MOP) (agonist site) (Homo sapiens, UniProt P35372); details: % of control specific binding
T3 construct: purchased CEREP
Procedure: as §1

[6] = biological target: T4, A3 (h) (Homo sapiens, UniProt P0DMS8)
T4 construct: purchased CEREP
Procedure: as §1

[7] = biological target: T5, CCR1 (h) (Homo sapiens, UniProt P32246); details: % of control specific binding
T5 construct: purchased CEREP
Procedure: as §1

[8] = biological target: T6, PACAP (h) (PAC1) (Homo sapiens, UniProt P41586); details: % of control specific binding
T6 construct: purchased CEREP
Procedure: as §1

[9] = biological target: T7, 5-HT2C (h) (Homo sapiens, UniProt P28335)
T7 construct: purchased CEREP
Procedure: as §1

[10] = biological target: T8, B2 (h) (Homo sapiens, UniProt P30411); details: % of control specific binding
T8 construct: purchased CEREP
Procedure: as §1

[11] = biological target: T9, CB1 (h) (Homo sapiens, UniProt P21554); details: % of control specific binding
T9 construct: purchased CEREP
Procedure: as §1

[12] = biological target: T10, M3 (h) (Homo sapiens, UniProt P20309); details: % of control specific binding
T10 construct: purchased CEREP
Procedure: as §1

[13] = biological target: T11, 5-HT1A (h) (Homo sapiens, UniProt P08908); details: % of control specific binding
T11 construct: purchased CEREP
Procedure: as §1

[14] = biological target: T12, H2 (h) (Homo sapiens, UniProt P25021); details: % of control specific binding
T12 construct: purchased CEREP
Procedure: as §1

[15] = system: SK+Ca channel; details: % of control specific binding
Procedure: as §1

[16] = biological target: T13, beta 1 (h) (Homo sapiens, UniProt P08588); details: % of control specific binding
T13 construct: purchased CEREP
Procedure: as §1

[17] = biological target: T14, delta 2 (h) (DOP) (Homo sapiens, UniProt P41143); details: % of control specific binding
T14 construct: purchased CEREP
Procedure: as §1

[18] = biological target: T15, 5-HT transporter (h) (Homo sapiens, UniProt P31645); details: % of control specific binding
T15 construct: purchased CEREP
Procedure: as §1

[19] = system: Na+ channel (site 2); details: % of control specific binding
Procedure: as §1

[20] = biological target: T16, D2S (h) (Homo sapiens, UniProt P14416); details: % of control specific binding
T16 construct: purchased CEREP
Procedure: as §1

[21] = biological target: T17, TRH1 (h) (Homo sapiens, UniProt P34981); details: % of control specific binding
T17 construct: purchased CEREP
Procedure: as §1

[22] = system: ML2 (MT3)
Procedure: as §1

[23] = biological target: T18, beta 2 (h) (Homo sapiens, UniProt P07550); details: % of control specific binding
T18 construct: purchased CEREP
Procedure: as §1

[24] = biological target: T19, CCKB (h) (CCK2) (Homo sapiens, UniProt P32239); details: % of control specific binding
T19 construct: purchased CEREP
Procedure: as §1

[25] = system: K+V channel; details: % of control specific binding
Procedure: as §1

[26] = biological target: T20, NE transporter (h) (Homo sapiens, UniProt P23975); details: % of control specific binding
T20 construct: purchased CEREP
Procedure: as §1

[27] = system: BZD (central); details: % of control specific binding
Procedure: as §1

[28] = biological target: T21, 5-HT1B (Rattus norvegicus, UniProt P28564); details: % of control specific binding
T21 construct: purchased CEREP
Procedure: as §1

[29] = biological target: T22, NK2 (h) (Homo sapiens, UniProt P21452); details: % of control specific binding
T22 construct: purchased CEREP
Procedure: as §1

[30] = biological target: T23, M1 (h) (Homo sapiens, UniProt P11229); details: % of control specific binding
T23 construct: purchased CEREP
Procedure: as §1

[31] = biological target: T24, V1a (h) (Homo sapiens, UniProt P37288); details: % of control specific binding
T24 construct: purchased CEREP
Procedure: as §1

[32] = biological target: T25, MT2 (h) (agonist site) (Homo sapiens, UniProt P49286); details: % of control specific binding
T25 construct: purchased CEREP
Procedure: as §1

[33] = biological target: T26, GAL2 (h) (Homo sapiens, UniProt O43603); details: % of control specific binding
T26 construct: purchased CEREP
Procedure: as §1

[34] = system: sst (non-selective); details: % of control specific binding
Procedure: as §1

[35] = biological target: T27, kappa (KOP) (guinea-pig) (Cavia porcellus, UniProt P41144); details: % of control specific binding
T27 construct: purchased CEREP
Procedure: as §1

[36] = biological target: T28, M5 (h) (Homo sapiens, UniProt P08912); details: % of control specific binding
T28 construct: purchased CEREP
Procedure: as §1

[37] = biological target: T29, 5-HT3 (h) (Homo sapiens, UniProt P46098); details: % of control specific binding
T29 construct: purchased CEREP
Procedure: as §1

[38] = biological target: T30, D4.4 (h) (Homo sapiens, UniProt P21917); details: % of control specific binding
T30 construct: purchased CEREP
Procedure: as §1

[39] = system: Ca2+ channel (L, verapamil site) (phenylalkylamines); details: % of control specific binding
Procedure: as §1

[40] = biological target: T31, 5-HT2A (h) (Homo sapiens, UniProt P28223); details: % of control specific binding
T31 construct: purchased CEREP
Procedure: as §1

[41] = biological target: T32, BZD (peripheral) (Rattus norvegicus, UniProt P16257); details: % of control specific binding
T32 construct: purchased CEREP
Procedure: as §1

T4 sequence (P0DMS8 whole entry): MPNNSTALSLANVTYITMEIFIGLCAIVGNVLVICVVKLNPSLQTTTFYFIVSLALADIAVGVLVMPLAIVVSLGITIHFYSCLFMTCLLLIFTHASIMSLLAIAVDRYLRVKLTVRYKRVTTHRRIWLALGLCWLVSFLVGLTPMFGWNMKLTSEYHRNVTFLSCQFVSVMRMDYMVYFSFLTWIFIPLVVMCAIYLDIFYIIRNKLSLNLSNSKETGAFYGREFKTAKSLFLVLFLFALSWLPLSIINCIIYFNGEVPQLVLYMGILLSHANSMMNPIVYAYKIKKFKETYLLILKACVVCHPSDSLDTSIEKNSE
T7 sequence (P28335 33-458): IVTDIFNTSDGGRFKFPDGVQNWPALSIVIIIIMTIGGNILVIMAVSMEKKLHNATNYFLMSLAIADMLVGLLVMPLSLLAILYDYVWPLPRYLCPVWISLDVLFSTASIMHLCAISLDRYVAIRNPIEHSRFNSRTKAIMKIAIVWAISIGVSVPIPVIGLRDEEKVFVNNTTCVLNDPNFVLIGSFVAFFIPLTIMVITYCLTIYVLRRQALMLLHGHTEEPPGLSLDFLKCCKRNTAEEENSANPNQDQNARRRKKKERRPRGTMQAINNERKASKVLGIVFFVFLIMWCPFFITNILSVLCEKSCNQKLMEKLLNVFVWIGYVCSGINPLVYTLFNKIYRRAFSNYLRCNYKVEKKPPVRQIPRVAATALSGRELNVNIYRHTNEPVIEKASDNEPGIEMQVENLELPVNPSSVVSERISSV
T11 sequence (P08908 whole entry): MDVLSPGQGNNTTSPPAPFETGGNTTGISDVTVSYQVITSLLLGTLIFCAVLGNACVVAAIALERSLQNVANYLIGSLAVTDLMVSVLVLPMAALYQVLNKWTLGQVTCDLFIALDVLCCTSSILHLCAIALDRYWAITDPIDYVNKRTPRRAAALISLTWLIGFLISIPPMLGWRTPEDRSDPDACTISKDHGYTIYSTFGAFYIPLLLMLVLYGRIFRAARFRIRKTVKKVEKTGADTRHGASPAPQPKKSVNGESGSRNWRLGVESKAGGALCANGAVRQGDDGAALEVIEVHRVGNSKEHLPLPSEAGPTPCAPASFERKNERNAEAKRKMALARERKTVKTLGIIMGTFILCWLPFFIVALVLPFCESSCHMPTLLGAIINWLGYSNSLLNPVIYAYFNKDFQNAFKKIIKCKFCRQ
T22 sequence (P21452 whole entry): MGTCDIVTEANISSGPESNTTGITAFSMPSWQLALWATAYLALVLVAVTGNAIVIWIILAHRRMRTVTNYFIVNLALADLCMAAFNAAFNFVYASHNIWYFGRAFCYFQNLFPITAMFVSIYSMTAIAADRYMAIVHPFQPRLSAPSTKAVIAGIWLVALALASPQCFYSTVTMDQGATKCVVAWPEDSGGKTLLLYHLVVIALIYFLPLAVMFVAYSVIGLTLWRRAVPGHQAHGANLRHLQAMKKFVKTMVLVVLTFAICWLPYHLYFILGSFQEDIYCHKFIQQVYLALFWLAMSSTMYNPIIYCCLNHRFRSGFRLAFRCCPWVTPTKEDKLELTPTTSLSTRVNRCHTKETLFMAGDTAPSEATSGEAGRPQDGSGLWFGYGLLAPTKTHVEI
T5 sequence (P32246 whole entry): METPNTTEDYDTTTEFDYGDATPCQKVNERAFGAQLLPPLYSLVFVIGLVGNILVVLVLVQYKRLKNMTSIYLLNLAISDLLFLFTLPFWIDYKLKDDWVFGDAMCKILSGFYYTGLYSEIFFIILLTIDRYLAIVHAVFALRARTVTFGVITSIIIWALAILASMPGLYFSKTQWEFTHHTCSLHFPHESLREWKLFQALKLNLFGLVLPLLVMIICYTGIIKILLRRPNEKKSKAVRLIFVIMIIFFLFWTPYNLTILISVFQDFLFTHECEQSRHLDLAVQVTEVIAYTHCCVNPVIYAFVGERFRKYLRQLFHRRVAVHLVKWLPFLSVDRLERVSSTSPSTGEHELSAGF
T18 sequence (P07550 whole entry): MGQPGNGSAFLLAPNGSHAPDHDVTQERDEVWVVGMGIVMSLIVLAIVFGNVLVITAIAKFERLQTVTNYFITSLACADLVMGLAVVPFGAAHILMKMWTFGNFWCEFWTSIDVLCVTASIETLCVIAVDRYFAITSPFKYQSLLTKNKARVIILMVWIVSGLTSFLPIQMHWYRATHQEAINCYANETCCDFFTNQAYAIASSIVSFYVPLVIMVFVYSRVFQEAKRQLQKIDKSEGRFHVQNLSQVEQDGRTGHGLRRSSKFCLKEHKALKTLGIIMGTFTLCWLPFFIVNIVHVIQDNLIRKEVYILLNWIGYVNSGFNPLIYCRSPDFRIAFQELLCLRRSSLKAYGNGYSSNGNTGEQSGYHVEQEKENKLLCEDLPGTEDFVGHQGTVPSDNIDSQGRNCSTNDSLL
T20 sequence (P23975 whole entry): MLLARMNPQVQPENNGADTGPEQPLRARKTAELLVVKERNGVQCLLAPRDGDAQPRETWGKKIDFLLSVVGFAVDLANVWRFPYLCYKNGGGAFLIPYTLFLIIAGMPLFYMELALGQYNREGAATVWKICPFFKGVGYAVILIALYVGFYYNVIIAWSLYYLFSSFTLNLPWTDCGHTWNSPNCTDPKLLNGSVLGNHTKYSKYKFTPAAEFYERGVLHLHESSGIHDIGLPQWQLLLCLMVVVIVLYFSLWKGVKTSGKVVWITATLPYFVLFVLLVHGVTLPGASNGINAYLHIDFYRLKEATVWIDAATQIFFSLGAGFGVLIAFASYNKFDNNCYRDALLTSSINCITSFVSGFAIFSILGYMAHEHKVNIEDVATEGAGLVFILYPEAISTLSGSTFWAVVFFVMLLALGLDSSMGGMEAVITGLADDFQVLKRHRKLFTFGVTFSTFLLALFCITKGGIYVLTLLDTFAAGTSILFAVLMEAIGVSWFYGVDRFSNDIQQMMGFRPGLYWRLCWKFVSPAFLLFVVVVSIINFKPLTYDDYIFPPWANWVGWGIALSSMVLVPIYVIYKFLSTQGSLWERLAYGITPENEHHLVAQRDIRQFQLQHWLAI
T14 sequence (P41143 whole entry): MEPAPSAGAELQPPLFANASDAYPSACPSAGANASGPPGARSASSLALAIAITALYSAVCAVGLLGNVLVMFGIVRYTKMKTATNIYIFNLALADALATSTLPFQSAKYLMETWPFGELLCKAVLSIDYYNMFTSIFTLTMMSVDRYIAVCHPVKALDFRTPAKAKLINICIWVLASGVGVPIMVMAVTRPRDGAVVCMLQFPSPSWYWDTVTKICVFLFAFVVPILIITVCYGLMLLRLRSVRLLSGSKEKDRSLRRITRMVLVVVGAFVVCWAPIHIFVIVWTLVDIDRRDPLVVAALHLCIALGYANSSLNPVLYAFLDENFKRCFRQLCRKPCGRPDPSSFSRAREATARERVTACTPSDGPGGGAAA
T13 sequence (P08588 whole entry): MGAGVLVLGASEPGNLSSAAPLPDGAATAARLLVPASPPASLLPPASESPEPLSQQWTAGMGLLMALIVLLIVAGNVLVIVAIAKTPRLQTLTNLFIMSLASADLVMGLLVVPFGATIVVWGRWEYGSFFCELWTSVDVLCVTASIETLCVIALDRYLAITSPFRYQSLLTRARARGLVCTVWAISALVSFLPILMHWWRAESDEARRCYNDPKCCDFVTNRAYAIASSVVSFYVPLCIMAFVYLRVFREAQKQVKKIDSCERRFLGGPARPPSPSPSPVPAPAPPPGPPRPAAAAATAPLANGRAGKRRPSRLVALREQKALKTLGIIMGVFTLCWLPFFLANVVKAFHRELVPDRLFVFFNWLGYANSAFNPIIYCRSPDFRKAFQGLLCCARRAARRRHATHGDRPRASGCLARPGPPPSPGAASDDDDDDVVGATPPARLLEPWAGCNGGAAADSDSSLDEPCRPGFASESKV
T17 sequence (P34981 whole entry): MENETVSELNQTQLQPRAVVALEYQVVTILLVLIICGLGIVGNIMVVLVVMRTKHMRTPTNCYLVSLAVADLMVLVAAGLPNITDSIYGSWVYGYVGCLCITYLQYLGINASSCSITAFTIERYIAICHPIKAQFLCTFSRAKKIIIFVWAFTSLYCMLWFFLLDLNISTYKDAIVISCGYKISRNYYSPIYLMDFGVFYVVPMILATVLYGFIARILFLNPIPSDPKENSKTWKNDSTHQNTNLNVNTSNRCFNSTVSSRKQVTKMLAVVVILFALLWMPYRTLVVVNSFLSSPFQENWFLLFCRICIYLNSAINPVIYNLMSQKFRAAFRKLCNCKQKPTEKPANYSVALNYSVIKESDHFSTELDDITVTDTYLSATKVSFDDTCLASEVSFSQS
T26 sequence (O43603 whole entry): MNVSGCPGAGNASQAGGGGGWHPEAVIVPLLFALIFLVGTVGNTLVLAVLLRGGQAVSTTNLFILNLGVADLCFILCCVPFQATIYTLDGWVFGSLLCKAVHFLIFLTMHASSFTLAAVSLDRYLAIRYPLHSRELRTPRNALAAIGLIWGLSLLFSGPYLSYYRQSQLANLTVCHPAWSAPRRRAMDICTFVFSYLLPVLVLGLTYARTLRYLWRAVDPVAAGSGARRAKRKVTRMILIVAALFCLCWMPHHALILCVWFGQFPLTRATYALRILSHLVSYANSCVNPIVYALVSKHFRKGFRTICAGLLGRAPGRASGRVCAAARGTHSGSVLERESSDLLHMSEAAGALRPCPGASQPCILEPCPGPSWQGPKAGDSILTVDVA
T25 sequence (P49286 whole entry): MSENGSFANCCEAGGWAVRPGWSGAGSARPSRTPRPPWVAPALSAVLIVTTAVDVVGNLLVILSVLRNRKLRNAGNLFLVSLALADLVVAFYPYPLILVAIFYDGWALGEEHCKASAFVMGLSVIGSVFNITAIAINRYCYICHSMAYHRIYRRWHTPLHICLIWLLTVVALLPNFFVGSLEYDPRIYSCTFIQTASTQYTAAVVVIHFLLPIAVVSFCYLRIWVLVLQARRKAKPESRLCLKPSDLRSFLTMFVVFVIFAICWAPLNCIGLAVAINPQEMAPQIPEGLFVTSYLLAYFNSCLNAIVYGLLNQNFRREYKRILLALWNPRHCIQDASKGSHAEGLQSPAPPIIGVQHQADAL

Cc1nc2ccc(NC(=O)Nc3ccnc4cccnc34)cc2o1.Cl [SB-334867, 1-(2-methylbenzoxazol-6-yl)-3-[1], [5]naphthyridin-4-yl-urea hydrochloride]
% Control (10 µM) Mean SB [1]: 97.9%
% Control (10 µM) Mean SB [2]: 90.6%
% Control (10 µM) Mean SB [3]: 102.6%
% Control (10 µM) Mean SB [4]: 96.5%
% Control (10 µM) Mean SB [5]: 86.3%
displacement of specific binding ([6]; 10 µM, A3): 63%
% Control (10 µM) Mean SB ([6]; % of control specific binding): 37.5%
% Control (10 µM) Mean SB [7]: 94.5%
% Control (10 µM) Mean SB [8]: 107.7%
displacement of specific binding ([9]; 10 µM, 5HT2C (serotonin 2C)): 70%
% Control (10 µM) Mean SB ([9]; % of control specific binding): 30.4%
% Control (10 µM) Mean SB [10]: 97%
% Control (10 µM) Mean SB [11]: 104.1%
% Control (10 µM) Mean SB [12]: 73.1%
% Control (10 µM) Mean SB [13]: 106.6%
% Control (10 µM) Mean SB [14]: 86.6%
% Control (10 µM) Mean SB [15]: 114.4%
% Control (10 µM) Mean SB [16]: 85.7%
% Control (10 µM) Mean SB [17]: 86.1%
% Control (10 µM) Mean SB [18]: 110.7%
% Control (10 µM) Mean SB [19]: 62.8%
% Control (10 µM) Mean SB [20]: 101.2%
% Control (10 µM) Mean SB [21]: 118.5%
displacement of specific binding ([22]; 10 µM, MT3 (melatonin)): 102%
% Control (10 µM) Mean SB ([22]; % of control specific binding): -1.6%
% Control (10 µM) Mean SB [23]: 94.6%
% Control (10 µM) Mean SB [24]: 135.1%
% Control (10 µM) Mean SB [25]: 108.1%
% Control (10 µM) Mean SB [26]: 49.4%
% Control (10 µM) Mean SB [27]: 89.4%
% Control (10 µM) Mean SB [28]: 85.9%
% Control (10 µM) Mean SB [29]: 96%
% Control (10 µM) Mean SB [30]: 103.6%
% Control (10 µM) Mean SB [31]: 106.1%
% Control (10 µM) Mean SB [32]: 98.6%
% Control (10 µM) Mean SB [33]: 97.3%
% Control (10 µM) Mean SB [34]: 88.9%
% Control (10 µM) Mean SB [35]: 100.8%
% Control (10 µM) Mean SB [36]: 103.3%
% Control (10 µM) Mean SB [37]: 93.9%
% Control (10 µM) Mean SB [38]: 95.9%
% Control (10 µM) Mean SB [39]: 92.3%
% Control (10 µM) Mean SB [40]: 89.5%
% Control (10 µM) Mean SB [41]: 109.3%
